Source: PubChem BioAssay AID1963829 (Molecular Pharmacology Branch, DTP, NCI, 2024)

Test system: 935938-334-R-J1-PDC complex spheroid viability
Experiment: Anticancer human tumor 935938-334-R-J1-PDC patient-derived small intestine adenocarcinoma cell line growth inhibition [POLQ]
Conditions: for IC50: curve of first compound; for viability, T/C: stronger effect = lower value
Method: Multicellular complex tumor spheroid response to Polymerase (POL) inhibitors (novobiocin, ART-558, RP6685) in combination with a variety of drugs and investigational agents in selected tumor cell lines
The POL inhibitors (novobiocin, ART-558, and RP6685) were evaluated both individually and in combination with standard of care and investigational anticancer small molecules within a complex spheroid model of solid tumors. . Complex spheroids include a stromal component modeled by human endothelial cells (HUVEC) and fibroblasts modeled by human mesenchymal stem cells (MSCs). The concentration ranges selected for each drug and investigational agent were based upon clinically achievable concentrations if the clinical Cmax of the agent was known.
Compounds. The drugs and investigational agents: novobiocin (NSC847541), ART-558 (NSC835418), RP-6685 (NSC848927), peposertib (NSC802822), ceralasertib (NSC780249), elimusertib (NSC800525), camonsertib (NSC841442), AZD-1390 (NSC803789), olaparib (NSC753686), talazoparib (NSC767125), rucaparib (NSC756644), sotorasib (NSC818433), MRTX-1133 (NSC836407), SN-38 (NSC673596), topotecan (NSC609699), epotoside (NSC141540), doxorubicin (NSC123127), gemcitabine (NSC613327), 5-fluorouracil (NSC19893), paclitaxel (NSC125973), vemurafenib (NSC761431), MSA-2 (NSC828583), SN-011 (NSC837082), adavosertib (NSC754352), prexasertib (NSC758257), carboplatin (NSC241240) and oxaliplatin (NSC266046), were obtained from the National Cancer Institute (NCI) Developmental Therapeutics Program Chemical Repository (21). The FDA-approved anticancer drug set is available from the Developmental Therapeutics Program at https://dtp.cancer.gov/organization/dscb/obtaining/. […] The stock solutions were prepared in dimethyl sulfoxide (DMSO, Sigma-Aldrich, St. Louis, MO, cat. D2650), except for the platinum compounds which were prepared in saline (Quality Biological, Gaithersburg, MD, cat. 114-055-101), at 800-fold the tested concentration and stored at -70 degrees C prior to their use. All drugs and investigational agents were tested over a range starting from a high concentration at or near the clinical Cmax and decreasing in half-log increments. If the clinical Cmax for an agent had not been determined, the highest concentration tested was 10 microM, except for SN-38, which was tested at a high concentration of 1 microM.
Cell Culture. All cells were maintained in an incubator at 37 degrees C and 5% CO2 with 95% humidity. The PDC lines were cultured according to standard operating procedures established by the NCI PDMR (https://pdmr.cancer.gov). Table 3 of the manuscript, lists the cell lines along with the number of the three cell types plated to form the mct-spheroids and media for tumor cell growth. After thawing, all PDC lines, except 997537-175-T-J1-PDC and 415267-285-R-J2-PDC, were cultured in Matrigel-coated flasks prepared with a working solution of 1X Ham's F-12 nutrient mix, without supplementation (Thermo Fisher Scientific, cat. 11765054), 100 U/mL penicillin-streptomycin (Thermo Fisher Scientific, cat. 15140122), and 2.5% Matrigel (Corning Inc., Corning, NY, cat. 354248) for the first three passages. The two PDC lines 997537-175-T-J1-PDC and 415267-285-R-J2-PDC were cultured on uncoated flasks. The 857933-349-R-J2-PDC line was cultured in 6C/Colon 1B media containing advanced DMEM/F-12 (Thermo Fisher Scientific, cat. 12634028), 10 mM HEPES (Thermo Fisher Scientific, cat. 15630080), 1X GlutaMAX supplement (Thermo Fisher Scientific, cat. 35050061), 0.1 mg/mL primocin (InvivoGen, San Diego, CA, cat. ant-pm-2), 10% defined fetal bovine serum, heat inactivated (HyClone Laboratories Inc., Logan, UT, cat. SH30070.03HI), 50% L-WRN conditioned media (ATCC, cat. CRL-3276), 1.25 mM N-Acetyl-L-cysteine (Sigma-Aldrich, cat. A9165), 10 mM nicotinamide (Sigma-Aldrich, cat. N0636), 1X B-27 supplement (Thermo Fisher Scientific, cat. 17504044), 1X N-2 supplement (Thermo Fisher Scientific, cat. […]
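Also: spheroids exposed to drugs for seven days before viability read.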
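For viability, T/C in this document: 100% = DMSO vehicle control wells.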

Compound `COc1cccc(OCCCN)c1-c1cc(Nc2cnc(C#N)cn2)n[nH]1` + Nc1ccc(C#CCN(C(=O)Cc2ncc(C(F)(F)F)cc2C(F)(F)F)c2ccc(F)cc2)nn1 has an IC50 (second compound 0.0316 µM) of 36.6 nM, an IC50 (second compound 0.1 µM) of 61.6 nM and an IC50 (second compound 0.316 µM) of 31.7 nM. It also gave an IC50 (second compound 1 µM) of 38.8 nM, an IC50 (second compound 3.16 µM) of 54.9 nM and an IC50 (second compound 10 µM) of 45.5 nM. For the same compound, the viability, T/C (second compound 0.0316 µM, first compound 0.00316 µM) was 95.1%, the viability, T/C (second compound 0.0316 µM, first compound 0.01 µM) was 122% and the viability, T/C (second compound 0.0316 µM, first compound 0.0316 µM) was 54.7%. It also gave a viability, T/C (second compound 0.0316 µM, first compound 0.1 µM) of 34.4%, a viability, T/C (second compound 0.0316 µM, first compound 0.316 µM) of 10.4% and a viability, T/C (second compound 0.0316 µM, first compound 1 µM) of 7.92%. It also gave a viability, T/C (second compound 0.1 µM, first compound 0.00316 µM) of 111%, a viability, T/C (second compound 0.1 µM, first compound 0.01 µM) of 99.2% and a viability, T/C (second compound 0.1 µM, first compound 0.0316 µM) of 72.4%. The viability, T/C (second compound 0.1 µM, first compound 0.1 µM) was 35.2%, the viability, T/C (second compound 0.1 µM, first compound 0.316 µM) was 9.41% and the viability, T/C (second compound 0.1 µM, first compound 1 µM) was 8.83%. It also gave a viability, T/C (second compound 0.316 µM, first compound 0.00316 µM) of 102%, a viability, T/C (second compound 0.316 µM, first compound 0.01 µM) of 92.4% and a viability, T/C (second compound 0.316 µM, first compound 0.0316 µM) of 44.1%. The viability, T/C (second compound 0.316 µM, first compound 0.1 µM) was 28.3%, the viability, T/C (second compound 0.316 µM, first compound 0.316 µM) was 8.42% and the viability, T/C (second compound 0.316 µM, first compound 1 µM) was 8.2%. It also gave a viability, T/C (second compound 1 µM, first compound 0.00316 µM) of 117%, a viability, T/C (second compound 1 µM, first compound 0.01 µM) of 83.2% and a viability, T/C (second compound 1 µM, first compound 0.0316 µM) of 62.1%. For the same compound, the viability, T/C (second compound 1 µM, first compound 0.1 µM) was 23.2%, the viability, T/C (second compound 1 µM, first compound 0.316 µM) was 10.4% and the viability, T/C (second compound 1 µM, first compound 1 µM) was 7.61%. The viability, T/C (second compound 3.16 µM, first compound 0.00316 µM) was 93.1%, the viability, T/C (second compound 3.16 µM, first compound 0.01 µM) was 71% and the viability, T/C (second compound 3.16 µM, first compound 0.0316 µM) was 76.5%. For the same compound, the viability, T/C (second compound 3.16 µM, first compound 0.1 µM) was 21.5%, the viability, T/C (second compound 3.16 µM, first compound 0.316 µM) was 10.1% and the viability, T/C (second compound 3.16 µM, first compound 1 µM) was 8.73%. It also gave a viability, T/C (second compound 10 µM, first compound 0.00316 µM) of 80.4%, a viability, T/C (second compound 10 µM, first compound 0.01 µM) of 88.1% and a viability, T/C (second compound 10 µM, first compound 0.0316 µM) of 66.1%. It also gave a viability, T/C (second compound 10 µM, first compound 0.1 µM) of 15.1%, a viability, T/C (second compound 10 µM, first compound 0.316 µM) of 11.3% and a viability, T/C (second compound 10 µM, first compound 1 µM) of 12.5%.
